From ChEMBL document CHEMBL1128422 (J Med Chem, 1995)
pEC50: −log10 of the molar value.

Species on record: Oryctolagus cuniculus
Assay: Ability to stimulate contraction of the rabbit iris sphincter smooth muscle using smooth muscle contraction assay
Assay type: functional
Settings: Muscle tissue

| SMILES | pEC50 |
| --- | --- |
| CSCC[C@H](NC(=O)[C@H](CC(C)C)NC(=O)CNC(=O)[C@@H](NC(=O)[C@H](Cc1ccccc1)NC(=O)[C@H](CCC(N)=O)NC(=O)[C@H](CCC(N)=O)NC(=O)[C@@H]1CCCN1C(=O)[C@H](CCCCN)NC(=O)[C@@H]1CCCN1C(=O)[C@@H](N)CCCN=C(N)N)[C@H](C)c1ccccc1)C(N)=O | 8.24 |
| CSCC[C@H](NC(=O)[C@H](CC(C)C)NC(=O)CNC(=O)[C@@H](NC(=O)[C@@H](NC(=O)[C@H](CCC(N)=O)NC(=O)[C@H](CCC(N)=O)NC(=O)[C@@H]1CCCN1C(=O)[C@H](CCCCN)NC(=O)[C@@H]1CCCN1C(=O)[C@@H](N)CCCN=C(N)N)[C@H](C)c1ccccc1)[C@H](C)c1ccccc1)C(N)=O | 8.00 |
| CSCC[C@H](NC(=O)[C@H](CC(C)C)NC(=O)CNC(=O)[C@H](Cc1ccccc1)NC(=O)[C@@H](NC(=O)[C@H](CCC(N)=O)NC(=O)[C@H](CCC(N)=O)NC(=O)[C@@H]1CCCN1C(=O)[C@H](CCCCN)NC(=O)[C@@H]1CCCN1C(=O)[C@@H](N)CCCN=C(N)N)[C@@H](C)c1ccccc1)C(N)=O | 9.23 |
| CSCC[C@H](NC(=O)[C@H](CC(C)C)NC(=O)CNC(=O)[C@@H](NC(=O)[C@@H](NC(=O)[C@H](CCC(N)=O)NC(=O)[C@H](CCC(N)=O)NC(=O)[C@@H]1CCCN1C(=O)[C@H](CCCCN)NC(=O)[C@@H]1CCCN1C(=O)[C@@H](N)CCCN=C(N)N)[C@@H](C)c1ccccc1)[C@H](C)c1ccccc1)C(N)=O | 9.24 |

These reach a higher pEC50. Values come first.

| pEC50 | SMILES |
| --- | --- |
| 9.89 | CSCC[C@H](NC(=O)[C@H](CC(C)C)NC(=O)CNC(=O)[C@@H](NC(=O)[C@H](Cc1ccccc1)NC(=O)[C@H](CCC(N)=O)NC(=O)[C@H](CCC(N)=O)NC(=O)[C@@H]1CCCN1C(=O)[C@H](CCCCN)NC(=O)[C@@H]1CCCN1C(=O)[C@@H](N)CCCN=C(N)N)[C@@H](C)c1ccccc1)C(N)=O |
| 9.27 | CSCC[C@H](NC(=O)[C@H](CC(C)C)NC(=O)CNC(=O)[C@H](Cc1ccccc1)NC(=O)[C@@H](NC(=O)[C@H](CCC(N)=O)NC(=O)[C@H](CCC(N)=O)NC(=O)[C@@H]1CCCN1C(=O)[C@H](CCCCN)NC(=O)[C@@H]1CCCN1C(=O)[C@@H](N)CCCN=C(N)N)[C@H](C)c1ccccc1)C(N)=O |
| 9.74 | CSCC[C@H](NC(=O)[C@H](CC(C)C)NC(=O)CNC(=O)[C@@H](NC(=O)[C@@H](NC(=O)[C@H](CCC(N)=O)NC(=O)[C@H](CCC(N)=O)NC(=O)[C@@H]1CCCN1C(=O)[C@H](CCCCN)NC(=O)[C@@H]1CCCN1C(=O)[C@@H](N)CCCN=C(N)N)[C@@H](C)c1ccccc1)[C@@H](C)c1ccccc1)C(N)=O |
| 9.55 | CSCC[C@H](NC(=O)[C@H](CC(C)C)NC(=O)CNC(=O)[C@@H](NC(=O)[C@@H](NC(=O)[C@H](CCC(N)=O)NC(=O)[C@H](CCC(N)=O)NC(=O)[C@@H]1CCCN1C(=O)[C@H](CCCCN)NC(=O)[C@@H]1CCCN1C(=O)[C@@H](N)CCCN=C(N)N)[C@H](C)c1ccccc1)[C@@H](C)c1ccccc1)C(N)=O |
